Data published in patent US9682976B2, “Protein kinase C inhibitors and uses thereof” (Rigel Pharmaceuticals, Inc., priority 2012, dated 2017).

What follows are molecules tested on PKC mediated IL-2 production (assay: IL-2 ELISA, human primary T cell, anti CD3+CD28+). Conditions: Homo sapiens, T-cell, 24 h, human primary T cells stimulated with αCD3 and αCD28, 24 hours.
Format: cell-based
Method: Compounds 1-328 were tested in a whole cell functional assay for PKC mediated IL-2 production as follows. Human primary T cell isolation and culture: Human primary T cells were prepared as follows. Whole blood was obtained from a healthy volunteer, mixed 1:1 with PBS, layered on to Ficoll Hypaque (Amersham Pharmacia Biotech, Piscataway, N.J., Catalog #17-1440-03) in 2:1 blood/PBS:ficoll ratio and centrifuged for 30 minutes at 4° C. at 1750 rpm. The cells at the serum: ficoll interface were recovered and washed twice with 5 volumes of PBS. These freshly isolated human peripheral blood mononuclear cells were cultured in Yssel's medium containing 40 U/ml IL2 in a flask pre-coated with […] αCD3 and 5 μg/ml αCD28 (Anti-Human CD3, BD Pharmingen Catalog #555336, Anti-Human CD28, Beckman Coulter Catalog #IM1376). The cells were stimulated for 3-4 days, then transferred to a fresh flask and maintained in RPMI (RPMI-1640 with L-Glutamine; Mediatech, Inc., Herndon Va., cat. #10-040-CM) with 10% FBS and 40 U/ml IL-2. The primary T-cells were then washed twice with PBS to remove the IL-2.
Primary T cell stimulation and IL2 ELISA: Human primary T cells (100,000 cells per well) were pre-incubated with or without test compound in Yssel's medium for 1 hour at 37° C. Cells were then stimulated by transferring them to round-bottom 96-well plates pre-coated with […] αCD3 and 5 μg/ml αCD28. For counter assay, cells were instead stimulated by adding 8× stock solutions of PMA and ionomycin in Yssels (for final concentrations of 0.5 ng/ml PMA and 0.1 uM ionomycin, both from Calbiochem). Cells were incubated at 37° C. for 24 hours before 100 μL supernatants were harvested for quantification of IL-2 by ELISA using Human IL-2 Duoset ELISA Kit from R and D Systems, Cat. # DY202E.

EC50 [nM] | SMILES
< 100 | [2H]C([2H])(O)C([2H])([2H])Oc1ccc(Nc2ncc(F)c(N[C@@H]3C[C@@H]4CCCN4C(C)(C)C3)n2)cc1C#N [Compound 210, 5-((4-(((7R,8aS)-5,5-dimethyloctahydroindolizin-7-yl)amino)-5-fluoropyrimidin-2-yl)amino)-2-(2-hydroxyethoxy-1,1,2,2-d4)benzonitrile]
1000 to 10000 | CC1(C)C[C@H](Nc2nc(Nc3cc(-n4nnnc4C4CC4)c(O)cc3F)ncc2F)C[C@@H]2CCCN21 [Compound 256, 4-(4-((7R,8aS)-octahydro-5,5-dimethylindolizin-7-ylamino)-5-fluoropyrimidin-2-ylamino)-2-(5-cyclopropyl-1H-tetrazol-1-yl)-5-fluorophenol]
< 100 | CC1(C)C[C@H](Nc2nc(Nc3cc(-n4nnnc4C4CC4)ccc3F)ncc2Cl)C[C@@H]2CCCN21 [Compound 164, 5-chloro-N2-(5-(5-cyclopropyl-1H-tetrazol-1-yl)-2-fluorophenyl)-N4-((7R,8aS)-5,5-dimethyloctahydroindolizin-7-yl)pyrimidine-2,4-diamine]
< 100 | CC1(C)Oc2ccc(Nc3ncc(F)c(N[C@@H]4C[C@@H]5CCCN5C(C)(C)C4)n3)cc2-n2nnnc21 [Compound 136, N2-(4,4-dimethyl-4H-benzo[b]tetrazolo[1,5-d][1,4]oxazin-8-yl)-N4-((7R,8aS)-5,5-dimethyloctahydroindolizin-7-yl)-5-fluoropyrimidine-2,4-diamine]
< 100 | CSc1nnnn1-c1cc(Nc2ncc(F)c(N[C@@H]3C[C@@H]4CCCN4C(C)(C)C3)n2)ccc1C [Compound 281, 5-fluoro-N4-((7R,8aS)-octahydro-5,5-dimethylindolizin-7-yl)-N2-(4-methyl-3-(5-(methylthio)-1H-tetrazol-1-yl)phenyl)pyrimidine-2,4-diamine]
100 to 500 | Cn1nnn(-c2cc(Nc3ncc(F)c(N[C@@H]4C[C@@H]5CCCN5C(C)(C)C4)n3)ccc2OC2CCOCC2)c1=O (stereo in doubt) [Compound 52, 1-(5-(5-fluoro-4-(octahydro-5,5-dimethylindolizin-7-ylamino)pyrimidin-2-ylamino)-2-(tetrahydro-2H-pyran-4-yloxy)phenyl)-4-methyl-1H-tetrazol-5(4H)-one]
100 to 500 | COc1ccc(Nc2ncc(F)c(N[C@H]3CCN4[C@@H](CCC4(C)C)C3)n2)cc1OC(F)F [Compound 299, N2-(3-(Difluoromethoxy)-4-methoxyphenyl)-N4-((7S,8aS)-3,3-dimethyloctahydroindolizin-7-yl)-5-fluoropyrimidine-2,4-diamine]
100 to 500 | CC1(C)C[C@H](Nc2nc(Nc3ccc(OCC(O)(C(F)(F)F)C(F)(F)F)c(C#N)c3)ncc2F)C[C@@H]2CCCN21 [Compound 209, 5-((4-(((7R,8aS)-5,5-dimethyloctahydroindolizin-7-yl)amino)-5-fluoropyrimidin-2-yl)amino)-2-(3,3,3-trifluoro-2-hydroxy-2-(trifluoromethyl)propoxy)benzonitrile]
1000 to 10000 | Cn1nnn(-c2cc(Nc3ncc(F)c(N[C@@H]4C[C@@H]5CCCN5C(C)(C)C4)n3)c(F)cc2O)c1=O [Compound 89, 1-(5-(4-((7R,8aS)-octahydro-5,5-dimethylindolizin-7-ylamino)-5-fluoropyrimidin-2-ylamino)-4-fluoro-2-hydroxyphenyl)-4-methyl-1H-tetrazol-5(4H)-one]
100 to 500 | CC1(C)C[C@H](Nc2nc(Nc3ccc4c(c3)OCC(=O)N4CC3CC3)ncc2F)C[C@@H]2CCCN21 [Compound 104, 4-(cyclopropylmethyl)-7-((4-(((7R,8aS)-5,5-dimethyloctahydroindolizin-7-yl)amino)-5-fluoropyrimidin-2-yl)amino)-2H-benzo[b][1,4]oxazin-3(4H)-one]
100 to 500 | CC1(C)CC[C@H]2C[C@@H](Nc3nc(Nc4ccc(OC5COC5)c(OC(F)F)c4)ncc3F)CCN21 [Compound 298, N2-(3-(Difluoromethoxy)-4-(oxetan-3-yloxy)phenyl)-N4-((7S,8aS)-3,3-dimethyloctahydroindolizin-7-yl)-5-fluoropyrimidine-2,4-diamine]
500 to 1000 | CC1(C)C[C@H](Nc2nc(Nc3ccc(OCC4(CO)COC4)c(-n4cnnn4)c3)ncc2F)C[C@@H]2CCCN21 [Compound 204, (3-((4-((4-(((7R,8aS)-5,5-dimethyloctahydroindolizin-7-yl)amino)-5-fluoropyrimidin-2-yl)amino)-2-(1H-tetrazol-1-yl)phenoxy)methyl)oxetan-3-yl)methanol]
500 to 1000 | CC1C(Nc2nc(Nc3cc(-n4nnn(C)c4=O)c(C4CC4)cc3F)ncc2F)CC(C)(C)N2CCCC12 (centres unmarked) [Compound 69, 1-(5-(5-Fluoro-4-(octahydro-5,5,8-trimethylindolizin-7-ylamino)pyrimidin-2-ylamino)-2-cyclopropyl-4-fluorophenyl)-4-methyl-1H-tetrazol-5(4H)-one]
100 to 500 | Cn1nnn(-c2cc(Nc3ncc(C#N)c(N[C@@H]4C[C@@H]5CCCN5C(C)(C)C4)n3)c(F)cc2O[C@H]2CCOC2)c1=O [Compound 112]
< 100 | CN1CCN(c2ccc(Nc3ncc(F)c(N[C@@H]4C[C@@H]5CCCN5C(C)(C)C4)n3)cc2C#N)CC1 [Compound 108, 5-((4-(((7R,8aS)-5,5-dimethyloctahydroindolizin-7-yl)amino)-5-fluoropyrimidin-2-yl)amino)-2-(4-methylpiperazin-1-yl)benzonitrile]
< 100 | Cc1ccc(Nc2ncc(F)c(N[C@@H]3C[C@@H]4CCCN4C(C)(C)C3)n2)cc1-n1nnn(C2COC2)c1=O [Compound 276, 1-(5-(4-((7R,8aS)-octahydro-5,5-dimethylindolizin-7-ylamino)-5-fluoropyrimidin-2-ylamino)-2-methylphenyl)-4-(oxetan-3-yl)-1H-tetrazol-5(4H)-one]
100 to 500 | Cn1nnn(-c2cc(Nc3ncc(F)c(N[C@@H]4C[C@@H]5CCCN5C(C)(C)C4)n3)c(F)cc2CCO)c1=O [Compound 93, 1-(5-(4-((7R,8aS)-octahydro-5,5-dimethylindolizin-7-ylamino)-5-fluoropyrimidin-2-ylamino)-4-fluoro-2-(2-hydroxyethyl)phenyl)-4-methyl-1H-tetrazol-5(4H)-one]
100 to 500 | Cn1nnn(-c2cc(Nc3ncc(C#N)c(N[C@@H]4C[C@@H]5CCCN5C(C)(C)C4)n3)c(F)cc2OC2CCOC2)c1=O (some centres unmarked) [Compound 111]
1000 to 10000 | Cn1nnn(-c2cc(Nc3ncc(F)c(NC4CCN5C(CCC5(C)C)C4)n3)c(F)cc2C2CC2)c1=O (racemic) [Compound 26, 1-(5-(5-fluoro-4-(octahydro-3,3-dimethylindolizin-7-ylamino)pyrimidin-2-ylamino)-2-cyclopropyl-4-fluorophenyl)-4-methyl-1H-tetrazol-5(4H)-one]

SMILES | EC50 [nM]
CC1(C)CC[C@H]2C[C@@H](Nc3nc(Nc4ccc(OC5CC(OCc6ccccc6)C5)c(Cl)c4)ncc3F)CCN21 (stereo partly drawn) [Compound 310, N2-(4-(3-(Benzyloxy)cyclobutoxy)-3-chlorophenyl)-N4-((7S,8aS)-3,3-dimethyloctahydroindolizin-7-yl)-5-fluoropyrimidine-2,4-diamine] | 1000 to 10000
